The record followed here is US20230159510A1, “NOVEL PRMT5 INHIBITORS” (AMGEN INC., priority 2020, published 2023).

The target in one test is PRMT5/MEP50 (Homo sapiens, UniProt O14744). Description: MTase-Glo methyl transferase assay, Method B (FL-Histone H2A, 1 µM MTA, 1 h pre-incubation). The note with it: read-out: PRMT5 MTase Glo Ki (nM, Meth. B). Further details: purchased Reaction Biology Corp RD-11-292. Format: biochemical. The protocol:
Method B: The PRMT5 inhibitory activity of test compounds was determined using the MTase-Glo™ assay (Promega), which monitors the product (S-adenosyl homocysteine or SAH) of methyltransferase reactions. The PRMT5 MTase-Glo assay was conducted in a 384-well white ProxiPlate (PerkinElmer) in a total volume of 16 µL. The PRMT5 enzymatic reaction (in 8 µL) contained 4 nM PRMT5/MEP50 (Reaction Biology Corp, catalog no.: RD-11-292), 5 µM S-adenosyl methionine (SAM, Promega), 2.5 µM FL-Histone H2A (BPS Bioscience, catalog no.: 52021), 1 µM 5′-methylthioadenosine (MTA, Sigma) and ½ log serially diluted compounds in a reaction buffer of 50 mM Tris (pH 8.0), 50 mM NaCl, 0.01% Tween 20, 0.01% BSA, and 1 mM TCEP. Test compounds were pre-incubated with PRMT5/MEP50, SAM, and MTA for 1 hour before addition of FL-Histone H2A to initiate the PRMT5 reaction. The reaction was allowed to proceed for 20 hours at room temperature and was then terminated by addition of 1 µL of 9X MTase-Glo™ Reagent (Promega). After a 30-minute incubation at room temperature, 8 µL of MTase-Glo™ Detection Solution (Promega) was added and the plate was incubated at room temperature for an additional 30 minutes. The light signal corresponding to the amount of SAH produced by the PRMT5 reaction was subsequently measured using an Envision multimode reader (PerkinElmer). IC50 and KI values were obtained by analyzing dose-response curves using GraphPad Prism®.

A further test has as its system HCT116 MTAP null cells. Description: HCT116 proliferation assay, MTAP null cells (CellTiter-Glo, 6 days). The class given is cell-based. The note with it: HCT116-MTAP null, 144 h, read-out: Protif_ HCT116-MTAP null IC50. The gist of the method:
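Compound titrations (top dose 1 or 10 µM, 1:3 dilution, 8 or 9 concentrations) and a DMSO control were applied to cells cultured overnight beforehand in RPMI 1640 with 10% FBS at 37° C, 5% CO2; viability was scored from luminescence.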

pIC50: −log10 of the molar value.

PRMT5/MEP50, sequence (O14744 2-637 limits assumed): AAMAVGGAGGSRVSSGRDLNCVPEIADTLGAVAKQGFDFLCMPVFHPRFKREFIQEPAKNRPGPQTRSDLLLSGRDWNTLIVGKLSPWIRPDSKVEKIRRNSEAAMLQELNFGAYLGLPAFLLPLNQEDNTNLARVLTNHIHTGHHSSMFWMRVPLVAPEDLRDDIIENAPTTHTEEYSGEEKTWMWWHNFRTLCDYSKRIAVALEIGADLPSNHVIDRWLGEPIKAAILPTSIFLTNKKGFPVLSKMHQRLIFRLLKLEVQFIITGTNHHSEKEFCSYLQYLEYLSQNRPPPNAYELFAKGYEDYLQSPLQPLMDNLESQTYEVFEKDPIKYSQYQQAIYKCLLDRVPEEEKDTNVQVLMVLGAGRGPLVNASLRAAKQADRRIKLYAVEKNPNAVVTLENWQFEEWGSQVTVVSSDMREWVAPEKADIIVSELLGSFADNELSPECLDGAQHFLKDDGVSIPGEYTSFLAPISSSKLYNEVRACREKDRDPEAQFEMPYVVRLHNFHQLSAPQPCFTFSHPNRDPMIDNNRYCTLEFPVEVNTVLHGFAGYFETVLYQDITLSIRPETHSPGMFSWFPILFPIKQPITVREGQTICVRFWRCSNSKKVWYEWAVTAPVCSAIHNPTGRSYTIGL
PRMT5/MEP50, sequence (Q9BQA1 2-342 partner limits assumed): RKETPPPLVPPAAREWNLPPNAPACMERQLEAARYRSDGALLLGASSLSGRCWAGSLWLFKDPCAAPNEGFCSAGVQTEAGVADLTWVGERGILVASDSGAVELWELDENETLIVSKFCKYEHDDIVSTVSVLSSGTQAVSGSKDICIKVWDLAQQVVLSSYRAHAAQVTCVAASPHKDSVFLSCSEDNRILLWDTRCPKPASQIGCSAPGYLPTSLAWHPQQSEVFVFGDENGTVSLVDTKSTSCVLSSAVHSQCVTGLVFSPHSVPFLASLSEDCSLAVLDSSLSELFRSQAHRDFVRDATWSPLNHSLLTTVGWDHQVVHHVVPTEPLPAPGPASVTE

As to `Cc1cc2cc(C(=O)N(Cc3cccc(-n4ccnc4)c3)Cc3ccc(C(F)(F)F)cn3)ccc2nc1N` [Example 648, 2-amino-N-[(3-imidazol-1-ylphenyl)methyl]-3-methyl-N-[[5-(trifluoromethyl)-2-pyridyl]methyl] quinoline-6-carboxamide], at PRMT5/MEP50, the inhibitory constant (Ki) (as a rule, the equilibrium dissociation constant of an inhibitor or competing ligand from its target) stood at 1.68 nM. In addition, the negative logarithm of the IC50 (pIC50) (as a rule, the negative decadic logarithm of the IC50, by convention in mol/L) in the test on HCT116 MTAP null cells is 6.74.
For the compound `CCn1ncc2c1CCCC2N(Cc1ccc(C(F)(F)F)cn1)C(=O)c1ccc2nc(N)c(C)cc2c1` (centres unmarked) [Example 673, 2-amino-N-(1-ethy1-4,5,6,7-tetrahydroindazol-4-yl)-3-methyl-N-[[5-(trifluoromethyl)-2-pyridyl]methyl] quinoline-6-carboxamide], the Ki at PRMT5/MEP50 turned out to be 5.32 nM. The negative-log IC50 (pIC50) in the test with HCT116 MTAP null cells is 7.02.
Take `Cc1cc2cc(C(=O)N(Cc3ccc(C(F)(F)F)cn3)Cc3ccc[nH]c3=O)ccc2nc1N` [Example 627, 2-amino-3-methyl-N-((2-oxo-1,2-dihydropyridin-3-yl)methyl)-N-((5-(trifluoromethyl)pyridin-2-yl)methyl)quinoline-6-carboxamide]: the inhibition constant (Ki) on PRMT5/MEP50 came out at 2.8 nM. For the same compound, in the test on HCT116 MTAP null cells, the pIC50 is 6.44.
Turning to `Cc1cc2cc(C(=O)N(Cc3cc(Br)ccn3)CC(C)C)ccc2nc1N` [Example 665, 2-amino-N-[(4-bromo-2-pyridyl)methyl]-N-isobutyl-3-methylquinoline-6-carboxamide], on PRMT5/MEP50, the Ki stood at 9.17 nM. In addition, the pIC50 with HCT116 MTAP null cells was 6.17.
Regarding `CCC(C1CCOCC1)N(Cc1ccc(C(F)(F)F)cn1)C(=O)c1ccc2nc(N)c(C)cc2c1` (centres unmarked) [Example 681, 2-amino-3-methyl-N-(1-tetrahydropyran-4-ylpropyl)-N-[[5-(trifluoromethyl)-2-pyridyl]methyl] quinoline-6-carboxamide], the Ki on PRMT5/MEP50 was found to be 4.87 nM. Also, the pIC50 in the test on HCT116 MTAP null cells is 6.62.
In the case of `Cc1cc2cc(C(=O)N(CCC3CCC3)Cc3ccc(C(F)(F)F)cn3)ccc2nc1N` [Example 629, 2-amino-N-(2-cyclobutylethyl)-3-methyl-N-((5-(trifluoromethyl)pyridin-2-yl)methyl)quinoline-6-carboxamide], the Ki at PRMT5/MEP50 was 5.93 nM. Besides, in the test on HCT116 MTAP null cells, the negative-log IC50 (pIC50) is 6.11.
For the compound `COc1cccc2c1OCCC2N(Cc1ccc(C(F)(F)F)cn1)C(=O)c1ccc2nc(N)c(C)cc2c1` (centres unmarked) [Example 630, 2-amino-N-(8-methoxychroman-4-yl)-3-methyl-N-[[5-(trifluoromethyl)-2-pyridyl]methyl] quinoline-6-carboxamide], the Ki on PRMT5/MEP50 was 4.58 nM. Moreover, in the test on HCT116 MTAP null cells, the negative logarithm of the IC50 (pIC50) was 7.48.
Regarding `CC#CCN(Cc1ccc(C(F)(F)F)cn1)C(=O)c1ccc2nc(N)c(C)cc2c1` [Example 657, 2-amino-N-but-2-ynyl-3-methyl-N-[[5-(trifluoromethyl)-2-pyridyl]methyl] quinoline-6-carboxamide], the inhibitory constant (Ki) at PRMT5/MEP50 worked out at 5.34 nM. For the same compound, the pIC50 in the test with HCT116 MTAP null cells is 6.21.
Regarding `Cc1cc2cc(C(=O)N(Cc3ccc(C(F)(F)F)cn3)C3CCc4[nH]cnc4C3)ccc2nc1N` (centres unmarked) [Example 670, 2-amino-3-methyl-N-(4,5,6,7-tetrahydro-1H-benzimidazol-5-yl)-N-[[5-(trifluoromethyl)-2-pyridyl]methyl] quinoline-6-carboxamide], at PRMT5/MEP50, the Ki is 5.15 nM. The negative-log IC50 (pIC50) in the test on HCT116 MTAP null cells is 6.07.
In the case of `Cc1cc2cc(C(=O)N(Cc3ccc(C(F)(F)F)cn3)C(C)C(C)O)ccc2nc1N` (centres unmarked) [Example 641, 2-amino-N-(2-hydroxy-1-methylpropyl)-3-methyl-N-[[5-(trifluoromethyl)-2-pyridyl]methyl] quinoline-6-carboxamide], the inhibition constant Ki at PRMT5/MEP50 was 13.1 nM. Also, the negative logarithm of the IC50 (pIC50) with HCT116 MTAP null cells is 6.04.
For `Cc1cc2cc(C(=O)N(Cc3cc(Cl)ccn3)CC(C)C)ccc2nc1N` [Example 639, 2-amino-N-[(4-chloro-2-pyridyl)methyl]-N-isobutyl-3-methylquinoline-6-carboxamide] the same measures were 12.2 nM and 6.24.
In the case of `Cc1cc2cc(C(=O)N(Cc3ccc(C(F)(F)F)cn3)Cc3ccccc3-n3ccnc3)ccc2nc1N` [Example 653, 2-amino-N-[(2-imidazol-1-ylphenyl)methyl]-3-methyl-N-[[5-(trifluoromethyl)-2-pyridyl]methyl] quinoline-6-carboxamide], on PRMT5/MEP50, the inhibition constant Ki worked out at 2.79 nM. In addition, in the test on HCT116 MTAP null cells, the pIC50 is 6.55.
On to `Cc1cc2cc(C(=O)N(Cc3ccc[nH]3)Cc3ccnc4[nH]ccc34)ccc2nc1N` [Example 689, 2-amino-3-methyl-N-(1H-pyrrolo[2,3-b]pyridin-4-ylmethyl)-N-(1H-pyrrol-2-ylmethyl)quinoline-6-carboxamide], for which, at PRMT5/MEP50, the Ki was determined as 2.94 nM. Further, the pIC50 with HCT116 MTAP null cells was 6.48.
For `Cc1cc2cc(C(=O)N(Cc3ccc4c(c3)CNC4=O)Cc3ccc(C(F)(F)F)cn3)ccc2nc1N` [Example 636, 2-amino-3-methyl-N-[(1-oxoisoindolin-5-yl)methyl]-N-[[5-(trifluoromethyl)-2-pyridyl]methyl] quinoline-6-carboxamide] the same measures were 2.3 nM and 6.05.
For `Cc1cc2cc(C(=O)N(Cc3ccc(C(F)(F)F)cn3)C3CCCc4c[nH]nc43)ccc2nc1N` (centres unmarked) [Example 631, 2-amino-3-methyl-N-(4,5,6,7-tetrahydro-2H-indazol-7-yl)-N-[[5-(trifluoromethyl)-2-pyridyl]methyl] quinoline-6-carboxamide], in that order: 7.14 nM and 7.55.
Regarding `Cc1cc2cc(C(=O)N(Cc3ccc(C(F)(F)F)cn3)C(C)CC(C)C)ccc2nc1N` (centres unmarked) [Example 634, 2-amino-N-(1,3-dimethylbutyl)-3-methyl-N-[[5-(trifluoromethyl)-2-pyridyl]methyl] quinoline-6-carboxamide], the Ki on PRMT5/MEP50 was 6.84 nM. Besides, the pIC50 with HCT116 MTAP null cells is 6.03.
As to `Cc1cc2cc(C(=O)N(Cc3ccc(C(F)(F)F)cn3)C(C)c3ccc4c(c3)NC(=O)CO4)ccc2nc1N` (centres unmarked) [Example 625, 2-amino-3-methyl-N-(1-(3-oxo-3,4-dihydro-2H-benzo[b][1,4]oxazin-6-yl)ethyl)-N-((5-(trifluoromethyl)pyridin-2-yl)methyl)quinoline-6-carboxamide], the Ki on PRMT5/MEP50 stood at 1.99 nM. Also, the pIC50 in the test on HCT116 MTAP null cells was 6.74.
Consider `COc1ccnc2c1CCCC2N(Cc1ccc(C(F)(F)F)cn1)C(=O)c1ccc2nc(N)c(C)cc2c1` (centres unmarked) [Example 666, 2-amino-N-(4-methoxy-5,6,7,8-tetrahydroquinolin-8-yl)-3-methyl-N-[[5-(trifluoromethyl)-2-pyridyl]methyl] quinoline-6-carboxamide], for which the inhibition constant Ki on PRMT5/MEP50 was determined as 3.93 nM. Further, the negative logarithm of the IC50 (pIC50) in the test with HCT116 MTAP null cells was 7.39.
For the compound `Cc1cc2cc(C(=O)N(Cc3ccnc4[nH]ccc34)Cc3ccnn3C)ccc2nc1N` [Example 687, 2-amino-3-methyl-N-[(2-methylpyrazol-3-yl)methy1] -N-(1 H-pyrrolo [2,3-b]pyridin-4-ylmethyl)quinoline-6-carboxamide], the inhibition constant (Ki) on PRMT5/MEP50 was 1.56 nM. The pIC50 in the test on HCT116 MTAP null cells is 6.96.
In the case of `Cc1cc2cc(C(=O)N(Cc3ccc(C(F)(F)F)cn3)CC3CCC(O)C3)ccc2nc1N` (centres unmarked) [Example 677, 2-amino-N-[(3-hydroxycyclopentyl)methyl]-3-methyl-N-[[5-(trifluoromethyl)-2-pyridyl]methyl] quinoline-6-carboxamide], the inhibition constant Ki at PRMT5/MEP50 stood at 9.37 nM. In addition, in the test with HCT116 MTAP null cells, the negative logarithm of the IC50 (pIC50) is 6.02.
As for `Cc1cc2cc(C(=O)N(Cc3ccc(O)cc3)Cc3ccc(C(F)(F)F)cn3)ccc2nc1N` [Example 661, 2-amino-N-[(4-hydroxyphenyl)methyl]-3-methyl-N-[[5-(trifluoromethyl)-2-pyridyl]methyl] quinoline-6-carboxamide], the inhibition constant Ki at PRMT5/MEP50 worked out at 1.81 nM. The negative logarithm of the IC50 (pIC50) with HCT116 MTAP null cells is 7.16.
For `Cc1cc2cc(C(=O)N(CCC3CC3)Cc3ccc(C(F)(F)F)cn3)ccc2nc1N` [Example 695, 2-amino-N-(2-cyclopropylethyl)-3-methyl-N-[[5-(trifluoromethyl)-2-pyridyl]methyl] quinoline-6-carboxamide], in that order: 6.3 nM and 6.12.
`Cc1cc2cc(C(=O)N(Cc3ccccc3O)Cc3ccnc4[nH]ccc34)ccc2nc1N` [Example 690, 2-amino-N-[(2-hydroxyphenyl)methyl]-3-methyl-N-(1H-pyrrolo[2,3-b]pyridin-4-ylmethyl)quinoline-6-carboxamide]: the inhibition constant Ki at PRMT5/MEP50 worked out at 1.68 nM. Moreover, the pIC50 in the test on HCT116 MTAP null cells was 7.03.
As to `Cc1cc2cc(C(=O)N(Cc3ccc(N)cn3)Cc3c[nH]c4ccccc34)ccc2nc1N` [Example 691, 2-amino-N-[(5-amino-2-pyridyl)methyl]-N-(1H-indol-3-ylmethyl)-3-methyl-quinoline-6-carboxamide], the inhibition constant (Ki) at PRMT5/MEP50 was determined as 3.51 nM. Further, the pIC50 with HCT116 MTAP null cells is 6.28.
As to `Cc1cc2cc(C(=O)N(Cc3ccc(C(F)(F)F)cn3)C3CCc4cn[nH]c4C3)ccc2nc1N` (centres unmarked) [Example 671, 2-amino-3-methyl-N-(4,5,6,7-tetrahydro-1 H-indazol-6-yl)-N-[[5-(trifluoromethyl)-2-pyridyl]methyl] quinoline-6-carboxamide], the Ki at PRMT5/MEP50 stood at 6.82 nM. Moreover, the pIC50 in the test with HCT116 MTAP null cells was 6.74.
